Experimental data taken from US20180353445A1, “METHODS AND COMPOSITIONS RELATING TO PROTEASOME INHIBITOR RESISTANCE” (Whitehead Institute for Biomedical Research, priority 2017, published 2018).

Key:
[1] = system: T47D cells; assay: Cell viability, T47D cells with doxycycline-inducible PSMD2 shRNA (KD) vs control; assay type: cell-based, human
[2] = system: T47D cells; assay: Translation and degradation assays (3H-phenylalanine); assay type: cell-based, human; conditions: control cells, 20-hour treatment
Description: FIGS. 4A-4F: Transient induction of PSMD2 shRNA is sufficient to promote resistance to proteasome inhibition. (FIG. 4A) Schematic representation of the experimental design. (FIG. 4B) T471) cells harboring a doxycycline-inducible PSMD2 shRNA were grown in the presence of in/nil doxycycline for 48 hours. Cells were then collected, washed and plated in the absence of doxycycline for 24 hours prior to exposure to increasing concentrations of bortezomib. Relative cell numbers were measured 3 days later. […] The proteasome complex levels and activity of the 20S proteasome were assessed by native gel electrophoresis. Loading controls were analyzed by immunoblot for PSMD2 and tubulin following SDS-PAGE. […] (FIG. 4E) The rate of degradation was analyzed in cells with reduced levels of PSMD2 (green bars) versus control (red bars) in the presence or absence of 10 nM bortezomib (treatment for 20 hours) by monitoring the release of H3-Phe in pre-labeled cells. (FIG. 4F) Rate of total protein synthesis was determined in cells with reduced levels of PSMD2 (green bars) versus control (red bars) in the presence or absence of 10 nM bortezomib (treatment for 20 hours) by measuring the rate of incorporation of 3H-phenylalanine for 1 hour. **p<0.01***p<0.001 […]

[3] = molecular target: T1, FDX1 (Homo sapiens, UniProt P10109); assay: Electron transfer from reduced FDX1 to the cysteine desulfurase complex; assay type: biochemical; conditions: upon addition of cysteine
T1 construct: made in house
T1 sequence (P10109 62-184): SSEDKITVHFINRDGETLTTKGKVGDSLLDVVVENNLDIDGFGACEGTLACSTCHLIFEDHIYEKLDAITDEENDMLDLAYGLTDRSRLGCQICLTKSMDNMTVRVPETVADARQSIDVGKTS

[4] = system: cancer cells; assay: Cell viability, elesclomol and elesclomol analogs (cell titer-glo); assay type: cell-based; conditions: across a variety of tumor types
Source text: In addition to the intrinsic sensitivity of certain cancer cells to elesclomol, as our drug screen indicated, the sensitivity of cancer cells to elesclomol can be further enhanced by forcing them into a Hi-OXPHOS state.
We examined several elesclomol analogs (FIG. 57B) to determine the structural features that are important for mediating its cytotoxicity. […] Substitution of oxygen for even one of the sulfur groups (compound-5) reduced the activity of elesclomol by 300 fold. The loss of activity was even more pronounced (>>300 fold) when both sulfurs were substituted (compound-6) (FIGS. 51C-51D, FIG. 57C). Various other modifications to the elesclomol scaffold were tolerated, as long as the core sulfur geometry remained intact.
Cell viability—where indicated relative cell number following different drug treatment was conducted by plating cells at 1000 cells/well in 384 well plates. Indicated concentrations of compounds were added 24 hour after plating at least in triplicate for each condition. Viability was measured 72 hours after drug addition using cell titer-glo (Promega) according to manufactures protocol. […]

SMILES: CC(C)C[C@H](NC(=O)[C@H](Cc1ccccc1)NC(=O)c1cnccn1)B(O)O [bortezomib]
- resistance of cells harboring PSMD2 shRNA vs parental line (EC50) ([1]; T47D, transient PSMD2 reduction): EC50 values increased considerably
- resistance after transient reduction of PSMD2 ([1]; doxycycline-regulated PSMD2 shRNA): significantly increased resistance
- rate of protein degradation [2]: sharply decreased
- rate of protein synthesis [2]: sharply decreased

SMILES: CN(NC(=O)CC(=O)NN(C)C(=S)c1ccccc1)C(=S)c1ccccc1 [elesclomol]
- electron transfer from reduced FDX1 to the cysteine desulfurase complex [3]: inhibits electron transfer
- inhibition of cancer cell growth [4]: potent inhibitor of cancer cell growth
